This is an account of results in ChEMBL document CHEMBL6103545, “Discovery of GS-2278, a Potent and Selective LPAR1 Antagonist for the Treatment of Idiopathic Pulmonary Fibrosis” (J Med Chem, 2025).

Data set [1] is described as follows: Oral bioavailability in male Sprague-Dawley rat at 5 mg/kg measured after 24 hrs by LC/MS/MS analysis. The settings on record: in vivo. The format is ADME, organism-based.
Data set [2] can be described thus: Plasma protein binding in human assessed as unbound fraction at 2 uM incubated for 24 hrs by LC-MS analysis. The format is ADME, cell-free.
For data set [3], the target named is T1, Solute carrier organic anion transporter family member 1B1 (Homo sapiens, UniProt Q9Y6L6).
T1 sequence (Q9Y6L6 whole entry): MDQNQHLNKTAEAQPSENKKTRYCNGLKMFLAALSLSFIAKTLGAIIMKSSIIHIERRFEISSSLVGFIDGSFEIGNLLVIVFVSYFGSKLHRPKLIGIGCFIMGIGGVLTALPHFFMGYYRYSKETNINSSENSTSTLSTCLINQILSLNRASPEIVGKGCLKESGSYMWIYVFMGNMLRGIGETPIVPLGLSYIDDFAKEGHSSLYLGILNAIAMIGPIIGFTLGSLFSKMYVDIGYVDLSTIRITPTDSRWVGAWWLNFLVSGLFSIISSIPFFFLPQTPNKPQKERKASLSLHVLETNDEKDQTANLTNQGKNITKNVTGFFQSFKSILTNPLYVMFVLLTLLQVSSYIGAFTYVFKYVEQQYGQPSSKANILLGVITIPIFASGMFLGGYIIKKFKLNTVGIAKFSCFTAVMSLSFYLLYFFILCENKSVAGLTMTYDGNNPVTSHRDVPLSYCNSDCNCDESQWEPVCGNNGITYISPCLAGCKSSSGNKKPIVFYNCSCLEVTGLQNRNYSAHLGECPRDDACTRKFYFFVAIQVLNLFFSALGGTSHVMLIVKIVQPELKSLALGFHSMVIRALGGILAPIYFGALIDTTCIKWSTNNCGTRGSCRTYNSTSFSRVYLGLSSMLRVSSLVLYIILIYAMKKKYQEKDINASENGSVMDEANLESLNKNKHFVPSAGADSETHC
Briefly: Inhibition of OATPB1P1 in human hepatocyte by LC-MS analysis. The format is cell-based.

Data set [4] has as its target T2, Solute carrier organic anion transporter family member 1B3 (Homo sapiens, UniProt Q9NPD5).
T2 sequence (Q9NPD5 whole entry): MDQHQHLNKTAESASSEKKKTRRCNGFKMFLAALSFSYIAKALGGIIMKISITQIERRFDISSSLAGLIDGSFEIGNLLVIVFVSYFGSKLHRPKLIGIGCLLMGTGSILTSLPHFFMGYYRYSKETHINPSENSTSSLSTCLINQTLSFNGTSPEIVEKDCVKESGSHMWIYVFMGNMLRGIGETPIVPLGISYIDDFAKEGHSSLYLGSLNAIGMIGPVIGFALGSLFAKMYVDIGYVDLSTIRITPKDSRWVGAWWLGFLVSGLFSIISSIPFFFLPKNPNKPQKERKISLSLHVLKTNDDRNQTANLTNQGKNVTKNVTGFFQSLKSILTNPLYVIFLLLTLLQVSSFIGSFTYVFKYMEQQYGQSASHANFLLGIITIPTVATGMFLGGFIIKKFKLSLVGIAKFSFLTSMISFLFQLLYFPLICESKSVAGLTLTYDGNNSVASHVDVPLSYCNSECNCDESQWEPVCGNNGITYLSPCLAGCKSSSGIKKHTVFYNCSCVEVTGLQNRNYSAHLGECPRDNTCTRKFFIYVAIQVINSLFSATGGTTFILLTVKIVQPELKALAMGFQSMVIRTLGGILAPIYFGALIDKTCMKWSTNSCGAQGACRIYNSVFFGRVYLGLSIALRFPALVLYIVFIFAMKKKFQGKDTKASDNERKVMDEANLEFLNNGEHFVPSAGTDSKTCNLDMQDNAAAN
Briefly: Inhibition of OATPB1P3 in human hepatocyte by LC-MS analysis. The format is cell-based.

Data set [5] is described as follows: Oral bioavailability in Beagle dog at 5 mg/kg measured after 24 hrs by LC/MS/MS analysis. The format is ADME, organism-based, Canis lupus familiaris. The settings on record: in vivo.
Another data set deals with T3, Cytochrome P450 2C8 (Homo sapiens, UniProt P10632).
T3 sequence (P10632 whole entry): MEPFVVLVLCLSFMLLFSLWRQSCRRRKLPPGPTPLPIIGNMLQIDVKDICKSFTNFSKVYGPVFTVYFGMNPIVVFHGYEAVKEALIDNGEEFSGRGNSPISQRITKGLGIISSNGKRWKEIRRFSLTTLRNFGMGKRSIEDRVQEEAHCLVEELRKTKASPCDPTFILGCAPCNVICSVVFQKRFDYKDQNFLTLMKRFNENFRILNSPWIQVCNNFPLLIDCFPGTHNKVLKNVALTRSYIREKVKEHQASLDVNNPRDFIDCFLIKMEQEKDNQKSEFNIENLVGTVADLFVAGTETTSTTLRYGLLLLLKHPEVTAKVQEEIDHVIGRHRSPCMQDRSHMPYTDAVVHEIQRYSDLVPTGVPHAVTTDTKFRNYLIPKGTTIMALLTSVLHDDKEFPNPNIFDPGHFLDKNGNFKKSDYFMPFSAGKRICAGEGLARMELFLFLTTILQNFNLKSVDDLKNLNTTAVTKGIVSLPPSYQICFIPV
The data set is described as follows: Inhibition of CYP2C8 (unknown origin) using midazolam as substrate. The format is ADME.

The nature of data set [6]: Toxicity in telemetry implanted Beagle dog CNS at 30 mg/kg/day, po measured upto 24 hrs by radiotelemetry based electroencephalogram analysis. The settings on record: in vivo. The format is organism-based, Canis lupus familiaris.
Data set [7] in a line: Lipophilicity, logD of compound at pH 7.4. The format is physicochemical. The note with it: buffer.
A further data set addresses T4, Cytochrome P450 1A2 (Homo sapiens, UniProt P05177).
T4 sequence (P05177 whole entry): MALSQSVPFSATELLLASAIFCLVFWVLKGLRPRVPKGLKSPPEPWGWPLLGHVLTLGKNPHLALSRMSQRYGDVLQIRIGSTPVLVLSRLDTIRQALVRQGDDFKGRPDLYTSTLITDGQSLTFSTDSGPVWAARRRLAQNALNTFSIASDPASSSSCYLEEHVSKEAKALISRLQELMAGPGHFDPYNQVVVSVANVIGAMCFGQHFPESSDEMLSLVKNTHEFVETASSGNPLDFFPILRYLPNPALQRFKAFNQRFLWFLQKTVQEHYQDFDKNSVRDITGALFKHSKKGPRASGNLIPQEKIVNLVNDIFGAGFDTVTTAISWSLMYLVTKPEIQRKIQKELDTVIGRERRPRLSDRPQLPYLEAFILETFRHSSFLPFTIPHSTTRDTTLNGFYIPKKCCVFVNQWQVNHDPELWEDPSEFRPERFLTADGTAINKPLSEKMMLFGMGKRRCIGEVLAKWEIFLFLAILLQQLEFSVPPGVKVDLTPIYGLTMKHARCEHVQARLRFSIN
The data set is described as follows: Inhibition of CYP1A2 (unknown origin) using midazolam as substrate. The format is ADME.

Data set [8] can be described thus: Mutagenicity in Salmonella typhimurium TA98 by Ames assay. The format is toxicity. The settings on record: salmonella enterica subsp. enterica serovar typhimurium. Background: The Ames test detects mutagens through reverse mutation in bacteria.
In data set [9] the target is Lysophosphatidic acid receptor 1 (Homo sapiens, UniProt Q92633). The data set is described as follows: Antagonist activity at LPA1 receptor in serum starved human TWNT-4 cells assessed as nuclear translocation pre-incubated for 1 hr followed by LPA stimulation and measured after 30 min by MRTF-A assay. The format is cell-based.
Chain of Lysophosphatidic acid receptor 1 (Q92633 whole entry): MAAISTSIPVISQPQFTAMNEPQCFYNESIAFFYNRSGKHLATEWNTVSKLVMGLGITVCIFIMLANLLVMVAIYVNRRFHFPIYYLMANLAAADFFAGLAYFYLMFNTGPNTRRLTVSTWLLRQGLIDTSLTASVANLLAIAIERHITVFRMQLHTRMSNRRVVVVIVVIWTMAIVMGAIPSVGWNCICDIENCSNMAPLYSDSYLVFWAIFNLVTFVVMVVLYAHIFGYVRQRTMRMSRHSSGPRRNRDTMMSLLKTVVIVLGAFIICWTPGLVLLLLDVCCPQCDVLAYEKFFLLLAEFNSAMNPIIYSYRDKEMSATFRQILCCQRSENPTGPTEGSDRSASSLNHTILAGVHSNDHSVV
Data set [10] can be described thus: Drug metabolism in Beagle dog hepatocyte assessed as (R)-1-(2,5-Difluoropyridin-3-yl)ethyl[4-(5-Aminopyridin-2-yl)-1-methyl-1H-1,2,3-triazol-5-yl]carbamate Hydrochloride metabolite formation at 1 uM by LC/MS/MS analysis. The settings on record: hepatocytes. The format is ADME, Canis lupus familiaris.

Take `C[C@@H](OC(=O)Nc1c(-c2ccc(NC(=O)c3cnc(C(F)(F)F)nc3)cn2)nnn1C)c1cc(F)cnc1F`: the values for the bioavailability in [1] and in data set [5] were 40% and 49%, respectively. In data set [2], the fraction unbound (usually the share of the substance not bound to proteins or other matrix) at 24 h, 2 µM came out at 0.14. Moreover, the IC50 (usually the concentration that inhibits the measured activity by half) is 13 µM in data set [3] and 15 µM in data set [4]. For the same compound, the “inhibition (INH)” value at Cytochrome P450 2C8 and against Cytochrome P450 1A2 was “Not_active” each time. Also, the Activity result in [6] and in data set [8] was “Non-toxic” in each case. The logD (in general, the decadic logarithm of the distribution of all forms, ionised or not, between an organic phase and buffer at a given pH) in data set [7] worked out at 2.7. Also, the EC50 (in general, the concentration giving half of the maximal effect) in data set [9] came out at 0.012 µM. Also, the Drug metabolism entry in [10] is “metabolite_detected”.
